Measured values from the supplement of paper PMC11451515.

Test system: NOMO1
Assay: cell viability relative to DMSO control; higher = less cytotoxic
Conditions: 48 h
In short: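 Three leukemia lines were tested: NOMO1 and SEM at 500 cells/well and P12-Ichikawa at 1000 cells/well. Each was adapted for at least four passages in each medium and seeded in 5 μl in 1536-well plates, and library compounds in DMSO were pin-dosed from 47 μM to 0.79 nM in 11 threefold steps. After 48 h at 37°C, CellTiter-Glo One luminescence was read. Viability is a percentage relative to DMSO wells on each plate, with cell-free wells as background.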

[1] = HPLM + 10% dialyzed FBS, 0.000781 µM
[2] = HPLM + 10% dialyzed FBS, 0.00234 µM
[3] = HPLM + 10% dialyzed FBS, 0.00702 µM
[4] = HPLM + 10% dialyzed FBS, 0.0211 µM
[5] = HPLM + 10% dialyzed FBS, 0.0632 µM
[6] = HPLM + 10% dialyzed FBS, 0.19 µM
[7] = HPLM + 10% dialyzed FBS, 0.569 µM
[8] = HPLM + 10% dialyzed FBS, 1.71 µM
[9] = HPLM + 10% dialyzed FBS, 5.12 µM
[10] = HPLM + 10% dialyzed FBS, 15.4 µM
[11] = HPLM + 10% dialyzed FBS, 46.1 µM
[12] = RPMI 5 mM glucose + 10% FBS, 0.000781 µM
[13] = RPMI 5 mM glucose + 10% FBS, 0.00234 µM
[14] = RPMI 5 mM glucose + 10% FBS, 0.00702 µM
[15] = RPMI 5 mM glucose + 10% FBS, 0.0211 µM
[16] = RPMI 5 mM glucose + 10% FBS, 0.0632 µM
[17] = RPMI 5 mM glucose + 10% FBS, 0.19 µM
[18] = RPMI 5 mM glucose + 10% FBS, 0.569 µM
[19] = RPMI 5 mM glucose + 10% FBS, 1.71 µM
[20] = RPMI 5 mM glucose + 10% FBS, 5.12 µM
[21] = RPMI 5 mM glucose + 10% FBS, 15.4 µM
[22] = RPMI 5 mM glucose + 10% FBS, 46.1 µM
[23] = RPMI 5 mM glucose + 10% dialyzed FBS, 0.000781 µM
[24] = RPMI 5 mM glucose + 10% dialyzed FBS, 0.00234 µM
[25] = RPMI 5 mM glucose + 10% dialyzed FBS, 0.00702 µM
[26] = RPMI 5 mM glucose + 10% dialyzed FBS, 0.0211 µM
[27] = RPMI 5 mM glucose + 10% dialyzed FBS, 0.0632 µM
[28] = RPMI 5 mM glucose + 10% dialyzed FBS, 0.19 µM
[29] = RPMI 5 mM glucose + 10% dialyzed FBS, 0.569 µM
[30] = RPMI 5 mM glucose + 10% dialyzed FBS, 1.71 µM
[31] = RPMI 5 mM glucose + 10% dialyzed FBS, 5.12 µM
[32] = RPMI 5 mM glucose + 10% dialyzed FBS, 15.4 µM
[33] = RPMI 5 mM glucose + 10% dialyzed FBS, 46.1 µM

## CC1(C)SCCN([S+](=O)([O-])c2ccc(OCC#CCO)cc2)[C@H]1C(=O)NO
[1]
  cell viability: 121%
[2]
  cell viability: 108%
[3]
  cell viability: 102%
[4]
  cell viability: 101%
[5]
  cell viability: 124%
[6]
  cell viability: 126%
[7]
  cell viability: 115%
[8]
  cell viability: 112%
[9]
  cell viability: 99.6%
[10]
  cell viability: 107%
[11]
  cell viability: 83.7%
[12]
  cell viability: 105%
[13]
  cell viability: 88.3%
[14]
  cell viability: 99.4%
[15]
  cell viability: 95.8%
[16]
  cell viability: 104%
[17]
  cell viability: 93%
[18]
  cell viability: 93.9%
[19]
  cell viability: 87.5%
[20]
  cell viability: 77.5%
[21]
  cell viability: 77.4%
[22]
  cell viability: 82.4%
[23]
  cell viability: 96.3%
[24]
  cell viability: 94.8%
[25]
  cell viability: 103%
[26]
  cell viability: 90.2%
[27]
  cell viability: 89.7%
[28]
  cell viability: 98.5%
[29]
  cell viability: 84.1%
[30]
  cell viability: 94.3%
[31]
  cell viability: 97.3%
[32]
  cell viability: 95.6%
[33]
  cell viability: 93.3%

## COc1c(Cl)cc2c([nH]c3cnccc32)c1NC(=O)c1cccnc1C
[1]
  cell viability: 115%
[2]
  cell viability: 100%
[3]
  cell viability: 110%
[4]
  cell viability: 105%
[5]
  cell viability: 123%
[6]
  cell viability: 124%
[7]
  cell viability: 122%
[8]
  cell viability: 115%
[9]
  cell viability: 108%
[10]
  cell viability: 102%
[11]
  cell viability: 89.4%
[12]
  cell viability: 99.8%
[13]
  cell viability: 102%
[14]
  cell viability: 98.4%
[15]
  cell viability: 101%
[16]
  cell viability: 101%
[17]
  cell viability: 108%
[18]
  cell viability: 111%
[19]
  cell viability: 108%
[20]
  cell viability: 98.2%
[21]
  cell viability: 102%
[22]
  cell viability: 99%
[23]
  cell viability: 84%
[24]
  cell viability: 105%
[25]
  cell viability: 103%
[26]
  cell viability: 96.1%
[27]
  cell viability: 98.9%
[28]
  cell viability: 105%
[29]
  cell viability: 115%
[30]
  cell viability: 116%
[31]
  cell viability: 98.2%
[32]
  cell viability: 104%
[33]
  cell viability: 101%

## CC1(C)CC\C2=C(/O1)C3=C(C=CC=C3)C(=O)C2=O
[1]
  cell viability: 123%
[2]
  cell viability: 112%
[3]
  cell viability: 113%
[4]
  cell viability: 101%
[5]
  cell viability: 112%
[6]
  cell viability: 104%
[7]
  cell viability: 103%
[8]
  cell viability: 118%
[9]
  cell viability: 99%
[10]
  cell viability: 98.4%
[11]
  cell viability: 4.14%
[12]
  cell viability: 113%
[13]
  cell viability: 104%
[14]
  cell viability: 115%
[15]
  cell viability: 103%
[16]
  cell viability: 108%
[17]
  cell viability: 111%
[18]
  cell viability: 90.9%
[19]
  cell viability: 107%
[20]
  cell viability: 108%
[21]
  cell viability: 88.2%
[22]
  cell viability: 5.12%
[23]
  cell viability: 109%
[24]
  cell viability: 97.4%
[25]
  cell viability: 109%
[26]
  cell viability: 113%
[27]
  cell viability: 103%
[28]
  cell viability: 102%
[29]
  cell viability: 101%
[30]
  cell viability: 99.9%
[31]
  cell viability: 100%
[32]
  cell viability: 96.3%
[33]
  cell viability: 6.57%

## CCC(CCCC)COC(=O)C(\C#N)=C(\c1ccccc1)c2ccccc2 (centres undefined)
[1]
  cell viability: 76.5%
[2]
  cell viability: 102%
[3]
  cell viability: 84%
[4]
  cell viability: 117%
[5]
  cell viability: 101%
[6]
  cell viability: 101%
[7]
  cell viability: 98.5%
[8]
  cell viability: 92.8%
[9]
  cell viability: 107%
[10]
  cell viability: 98.5%
[11]
  cell viability: 107%
[12]
  cell viability: 92.6%
[13]
  cell viability: 91.8%
[14]
  cell viability: 86.2%
[15]
  cell viability: 101%
[16]
  cell viability: 101%
[17]
  cell viability: 93%
[18]
  cell viability: 92.5%
[19]
  cell viability: 104%
[20]
  cell viability: 97.8%
[21]
  cell viability: 109%
[22]
  cell viability: 105%
[23]
  cell viability: 87.4%
[24]
  cell viability: 85.8%
[25]
  cell viability: 84.4%
[26]
  cell viability: 94.6%
[27]
  cell viability: 94%
[28]
  cell viability: 91.7%
[29]
  cell viability: 90.4%
[30]
  cell viability: 91.5%
[31]
  cell viability: 89.1%
[32]
  cell viability: 87.2%
[33]
  cell viability: 96.2%

## Cc1ccc(Nc2cc(-c3cccc(N4C(=O)c5ccccc5C4=O)c3)ncn2)cc1N[S+](C)(=O)[O-]
[1]
  cell viability: 107%
[2]
  cell viability: 113%
[3]
  cell viability: 156%
[4]
  cell viability: 123%
[5]
  cell viability: 127%
[6]
  cell viability: 149%
[7]
  cell viability: 128%
[8]
  cell viability: 140%
[9]
  cell viability: 153%
[10]
  cell viability: 132%
[11]
  cell viability: 107%

## Cc1c(N)nc([C@H](CC(N)=O)NC[C@@H](N)C(N)=O)nc1C(=O)N[C@H](C(=O)N[C@@H](C)[C@H](O)[C@@H](C)C(=O)N[C@@H](C(=O)NCCc1nc(-c2nc(C(=O)NCCC[S+](C)C)cs2)cs1)[C@@H](C)O)C(O[C@H]1O[C@H](CO)[C@H](O)[C@@H](O)[C@H]1O[C@H]1O[C@H](CO)[C@@H](O)[C@H](OC(N)=O)[C@@H]1O)c1c[nH]cn1 (some centres undefined)
[1]
  cell viability: 117%
[2]
  cell viability: 112%
[3]
  cell viability: 128%
[4]
  cell viability: 125%
[5]
  cell viability: 121%
[6]
  cell viability: 128%
[7]
  cell viability: 108%
[8]
  cell viability: 74%
[9]
  cell viability: 40.4%
[10]
  cell viability: 57.9%
[11]
  cell viability: 85.9%
[12]
  cell viability: 101%
[13]
  cell viability: 100%
[14]
  cell viability: 95%
[15]
  cell viability: 98.6%
[16]
  cell viability: 110%
[17]
  cell viability: 115%
[18]
  cell viability: 114%
[19]
  cell viability: 71.9%
[20]
  cell viability: 41.1%
[21]
  cell viability: 72.2%
[22]
  cell viability: 79.6%
[23]
  cell viability: 119%
[24]
  cell viability: 117%
[25]
  cell viability: 114%
[26]
  cell viability: 132%
[27]
  cell viability: 113%
[28]
  cell viability: 124%
[29]
  cell viability: 138%
[30]
  cell viability: 127%
[31]
  cell viability: 66%
[32]
  cell viability: 85%
[33]
  cell viability: 86.7%

## C[C@H](CCC(=O)O)[C@H]1CC[C@H]2[C@@H]3[C@H](O)C[C@@H]4C[C@H](O)CC[C@]4(C)[C@H]3CC[C@]12C
[1]
  cell viability: 93.9%
[2]
  cell viability: 93.7%
[3]
  cell viability: 108%
[4]
  cell viability: 99.5%
[5]
  cell viability: 106%
[6]
  cell viability: 98.4%
[7]
  cell viability: 102%
[8]
  cell viability: 99%
[9]
  cell viability: 101%
[10]
  cell viability: 120%
[11]
  cell viability: 114%
[12]
  cell viability: 85%
[13]
  cell viability: 88.1%
[14]
  cell viability: 92.9%
[15]
  cell viability: 88.6%
[16]
  cell viability: 101%
[17]
  cell viability: 87.1%
[18]
  cell viability: 102%
[19]
  cell viability: 91.2%
[20]
  cell viability: 93.5%
[21]
  cell viability: 90.3%
[22]
  cell viability: 83%
[23]
  cell viability: 73%
[24]
  cell viability: 80.4%
[25]
  cell viability: 82.5%
[26]
  cell viability: 84.9%
[27]
  cell viability: 88.9%
[28]
  cell viability: 88.8%
[29]
  cell viability: 83%
[30]
  cell viability: 79.8%
[31]
  cell viability: 89.2%
[32]
  cell viability: 99.2%
[33]
  cell viability: 92.4%
